Data on one compound can be found in publication PMC5087659, “The role of ADP-ribosylation in regulating DNA interstrand crosslink repair” (Journal of Cell Science, 2016).

The assay has as its target T1, O. sativa APL (Q10MW4) macrodomain (Oryza sativa, UniProt B8ALM5).
T1 construct: gene OsI_11122
Description: X-ray crystal structure of the complex (co-crystallisation). The following applies: 2 mM ADPr added to protein; crystals in 0.1 M SPG buffer pH 4, 25% PEG 1500, 20 °C; macrodomain binding pocket.

SMILES strings stand for the structures.

T1 sequence (B8ALM5 entry or part of it, one chain of several): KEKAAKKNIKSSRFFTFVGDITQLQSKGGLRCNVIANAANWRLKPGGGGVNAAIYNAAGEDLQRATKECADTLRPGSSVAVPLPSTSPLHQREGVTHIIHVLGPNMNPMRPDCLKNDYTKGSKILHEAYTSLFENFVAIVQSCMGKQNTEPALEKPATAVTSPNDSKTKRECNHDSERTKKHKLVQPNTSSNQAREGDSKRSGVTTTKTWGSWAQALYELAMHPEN

Consider `Nc1ncnc2c1ncn2[C@@H]1O[C@H](COP(=O)(O)OP(=O)(O)OC[C@H]2OC(O)[C@H](O)[C@@H]2O)[C@@H](O)[C@H]1O` (stereo partly shown) [ADP-ribose], for which the “X-ray crystal structure of the complex (co-crystallisation)” value is recorded as “We were able to obtain the O. sativa macrodomain in a complex with ADP-ribose”.
